Test results: US11053218B2, “3-(1-oxoisoindolin-2-yl)piperidine-2,6-dione derivatives and uses thereof” (Novartis AG, priority 2017, dated 2021)
Read-outs that look alike come from different tables or passages of the source.

Legend:
[1] = target: IKZF2 (Homo sapiens, UniProt Q96SW2+Q9UKS7); experiment: Prolabel quantification of IKZF2 protein levels in 293GT cells; assay type: cell-based
Method: (§1) The Prolabel system from DiscoverX was used to develop high-throughput and quantitative assays to measure changes in IKZF1, IKZF2 and GSPT1 protein levels in response to compounds. The prolabel tag was derived from the alpha fragment of beta galactosidase and has the following protein sequence: mssnslavvlqrrdwenpgvtqlnrlaahppfaswrnseeartdrpsqqlrslnge. The complementary fragment of beta-galactosidase (from DiscoverX), is added to the prolabel tag to form an active beta galactosidase enzyme whose activity can be precisely measured. In this way, the levels of a fusion protein with the prolabel tag can be quantified in cell lysates.
(§2) Lentiviral vectors, based on the Invitrogen pLenti6.2/V5 DEST backbone, were constructed that placed the prolabel tag upstream of IKZF1, IKZF2 or GSPT1 and expressed the fusion protein from a CMV promoter.
(§3) To ensure moderate and consistent expression of the prolabel fusion proteins across all cells in the population, stable cell lines were constructed from cells expressing a single copy of the construct. Lentivirus packaged with the constructs was made using the Virapower kit from Invitrogen.
(§4) The levels of prolabel tagged fusion proteins in compound treated cell lines were measured as follows:
(§5) Day 1, Cells were diluted to 1.0×10^6 cells/ml in normal growth medium. 17.5 μL of cells were plated in each well of a solid white 384 well plate. Plates were incubated overnight in a 37° C. tissue culture incubator.
(§6) Day 2, Serial dilutions of compounds were made in 384 well plates from 10 mM stocks. 15 μL of DMSO was added to each well of a 384 well plate. In the first column 15 μL of stock compound was added. The solution was mixed and 15 μL was transferred to the next column. This was repeated until 20 two-fold dilutions were prepared. 2.5 μL of diluted compounds were transferred into 60 μL of cell culture medium in another 384 well plate, and mixed well. 2.5 μL of this mixture was added to the plated cells. The final DMSO concentration was 0.5% and the highest concentration of compound was 50 μM. Plates were incubated overnight (e.g., about 14 h, 18 h, or 24 h) in a 37° C. tissue culture incubator.
(§7) Day 3, Plates were removed from the incubator and allowed to equilibrate at rt for 30 minutes. Prolabel substrate (DiscoverX PathHunter Prolabel Detection Kit, User manual: 93-0180) was added as described by the manufacturers protocols. Plates were incubated at rt for three hours and luminescence was read using an Envision reader (Perkin Elmer) Data was analyzed and visualized using the Spotfire software package.

[2] = target: IKZF1 (Homo sapiens, UniProt Q13422+Q96SW2); experiment: Prolabel quantification of IKZF1 protein levels in 293GT cells; assay type: cell-based; conditions: Prolabel assay, read-out: IKZF1 EC50
Method: as §1, §2, §3, §4, §5, §6, §7

[3] = 24 h, 10 μM, 24 h, 293GT cells; read-out: IKZF2 % protein reduction at 10 μM, 24 h
[4] = Prolabel assay, 293GT cells; read-out: IKZF2 EC50
[5] = 10 μM, 24 h, 293GT cells; read-out: IKZF2 % protein reduction at 10 μM, 24 h

Chain of IKZF2 (Q9UKS7 whole entry, the tested form may be a part): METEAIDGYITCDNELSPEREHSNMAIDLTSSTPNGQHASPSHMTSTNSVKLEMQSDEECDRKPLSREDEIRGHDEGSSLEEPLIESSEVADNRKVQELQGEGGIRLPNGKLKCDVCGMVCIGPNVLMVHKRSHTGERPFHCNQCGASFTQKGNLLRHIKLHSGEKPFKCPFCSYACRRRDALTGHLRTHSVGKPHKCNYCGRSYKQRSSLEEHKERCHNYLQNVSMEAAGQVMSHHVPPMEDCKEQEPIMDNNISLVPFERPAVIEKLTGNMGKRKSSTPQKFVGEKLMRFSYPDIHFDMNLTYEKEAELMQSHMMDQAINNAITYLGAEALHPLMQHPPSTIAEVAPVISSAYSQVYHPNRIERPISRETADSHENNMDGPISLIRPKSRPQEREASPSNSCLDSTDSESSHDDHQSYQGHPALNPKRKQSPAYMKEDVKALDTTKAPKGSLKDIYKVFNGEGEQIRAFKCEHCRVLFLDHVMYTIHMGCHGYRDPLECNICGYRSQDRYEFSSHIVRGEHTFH
Chain of IKZF2 (Q96SW2 whole entry, the tested form may be a part): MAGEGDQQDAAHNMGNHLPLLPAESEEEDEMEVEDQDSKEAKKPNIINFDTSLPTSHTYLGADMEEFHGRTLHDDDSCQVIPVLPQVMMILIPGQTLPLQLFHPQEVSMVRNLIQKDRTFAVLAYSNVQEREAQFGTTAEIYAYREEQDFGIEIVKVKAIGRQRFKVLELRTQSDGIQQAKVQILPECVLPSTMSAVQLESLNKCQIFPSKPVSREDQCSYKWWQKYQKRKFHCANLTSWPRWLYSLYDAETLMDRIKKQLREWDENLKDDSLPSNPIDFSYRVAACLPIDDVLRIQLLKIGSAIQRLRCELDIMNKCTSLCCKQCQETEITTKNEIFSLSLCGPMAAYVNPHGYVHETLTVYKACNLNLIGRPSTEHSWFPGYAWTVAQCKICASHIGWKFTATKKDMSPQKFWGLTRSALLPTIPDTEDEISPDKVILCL
Chain of IKZF2 (Q16531 whole entry partner, the tested form may be a part): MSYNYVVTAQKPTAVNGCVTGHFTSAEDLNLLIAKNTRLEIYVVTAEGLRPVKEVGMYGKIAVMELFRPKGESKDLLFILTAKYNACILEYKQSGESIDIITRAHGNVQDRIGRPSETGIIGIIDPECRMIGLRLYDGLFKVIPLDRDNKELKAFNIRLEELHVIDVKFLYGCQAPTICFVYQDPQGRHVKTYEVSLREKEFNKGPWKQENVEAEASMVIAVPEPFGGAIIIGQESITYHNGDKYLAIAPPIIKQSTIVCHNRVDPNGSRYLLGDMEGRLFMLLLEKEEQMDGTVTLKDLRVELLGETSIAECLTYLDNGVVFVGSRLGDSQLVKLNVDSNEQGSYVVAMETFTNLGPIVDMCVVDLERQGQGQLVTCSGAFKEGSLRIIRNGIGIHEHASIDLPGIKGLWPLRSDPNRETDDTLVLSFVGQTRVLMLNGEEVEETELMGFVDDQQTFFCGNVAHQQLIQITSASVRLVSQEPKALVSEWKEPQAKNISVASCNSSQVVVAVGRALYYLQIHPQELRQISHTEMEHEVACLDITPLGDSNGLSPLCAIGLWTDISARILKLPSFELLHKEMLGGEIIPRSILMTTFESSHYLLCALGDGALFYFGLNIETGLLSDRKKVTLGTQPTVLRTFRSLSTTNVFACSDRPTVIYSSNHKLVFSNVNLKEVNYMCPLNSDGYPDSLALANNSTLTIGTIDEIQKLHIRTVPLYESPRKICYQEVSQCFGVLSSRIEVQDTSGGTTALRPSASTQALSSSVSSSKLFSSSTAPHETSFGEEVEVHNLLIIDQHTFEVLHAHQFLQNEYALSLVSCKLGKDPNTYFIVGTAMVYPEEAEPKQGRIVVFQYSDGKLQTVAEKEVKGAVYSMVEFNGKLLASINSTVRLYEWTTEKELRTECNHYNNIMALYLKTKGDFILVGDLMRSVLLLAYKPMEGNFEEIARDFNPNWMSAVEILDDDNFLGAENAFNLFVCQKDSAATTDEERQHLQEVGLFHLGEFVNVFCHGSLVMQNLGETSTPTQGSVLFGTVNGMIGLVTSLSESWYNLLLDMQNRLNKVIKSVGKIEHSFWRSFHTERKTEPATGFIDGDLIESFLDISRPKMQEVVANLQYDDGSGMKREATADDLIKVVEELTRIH
Chain of IKZF1 (Q13422 whole entry): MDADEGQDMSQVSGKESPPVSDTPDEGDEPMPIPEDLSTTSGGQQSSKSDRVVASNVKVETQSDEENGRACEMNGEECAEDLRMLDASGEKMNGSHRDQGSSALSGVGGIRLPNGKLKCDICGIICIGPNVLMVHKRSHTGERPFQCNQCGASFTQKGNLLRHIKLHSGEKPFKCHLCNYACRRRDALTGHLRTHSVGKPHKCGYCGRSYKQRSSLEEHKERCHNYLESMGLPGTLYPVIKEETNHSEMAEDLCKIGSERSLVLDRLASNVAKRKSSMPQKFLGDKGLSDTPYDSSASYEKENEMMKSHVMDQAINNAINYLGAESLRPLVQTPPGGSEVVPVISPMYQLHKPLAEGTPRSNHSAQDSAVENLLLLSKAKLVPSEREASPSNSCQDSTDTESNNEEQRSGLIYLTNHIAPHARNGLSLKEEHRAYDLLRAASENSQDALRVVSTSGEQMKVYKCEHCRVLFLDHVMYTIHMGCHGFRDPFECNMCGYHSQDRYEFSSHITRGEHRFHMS
Chain of IKZF1 (Q96SW2 whole entry): as the sequence (Q96SW2 whole entry, the tested form may be a part) above
Chain of IKZF1 (Q16531 whole entry partner): as the sequence (Q16531 whole entry partner, the tested form may be a part) above

| Structure (SMILES) | inhibition at 10 µM [1, 3] | DC50 [1, 4] | DC50 [2] | inhibition at 10 µM [1, 5] |
| --- | --- | --- | --- | --- |
| O=C1CCC(N2Cc3cc(C4CCN(Cc5cnc[nH]5)CC4)ccc3C2=O)C(=O)N1 (stereo not drawn) [Compound I-120, 3-(5-(1-((1H-imidazol-5-yl)methyl)piperidin-4-yl)-1-oxoisoindolin-2-yl)piperidine-2,6-dione] | 50% | 830 nM | > 30 µM |  |
| CCn1ccc(CN2CCC(c3ccc4c(c3)CN(C3CCC(=O)NC3=O)C4=O)CC2)n1 (stereo not drawn) [Compound I-121, 3-(5-(1-((1-ethyl-1H-pyrazol-3-yl)methyl)piperidin-4-yl)-1-oxoisoindolin-2-yl)piperidine-2,6-dione] | 60% | 62 nM | > 30 µM |  |
| Nc1ncc(CN2CCC(c3ccc4c(c3)CN(C3CCC(=O)NC3=O)C4=O)CC2)cn1 (stereo not drawn) [Compound I-122, 3-(5-(1((2-aminopyrimidin-5-yl)methyl)piperidin-4-yl)-1-oxoisoindolin-2-yl)piperidine-2,6-dione] | 70% | 76 nM | > 30 µM |  |
| Nc1ccc(CN2CCC(c3ccc4c(c3)CN(C3CCC(=O)NC3=O)C4=O)CC2)cn1 (stereo not drawn) [Compound I-123, 3-(5-(1-((6-aminopyridin-3-yl)methyl)piperidin-4-yl)-1-oxoisoindolin-2-yl)piperidine-2,6-dione] | 75% | 69 nM | > 30 µM |  |
| Cn1ncc(CN2CCC(c3ccc4c(c3)CN(C3CCC(=O)NC3=O)C4=O)CC2)c1N (stereo not drawn) [Compound I-124, 3-(5-(1-((5-amino-1-methyl-1H-pyrazol-4-yl)methyl)piperidin-4-yl)-1-oxoisoindolin-2-yl)piperidine-2,6-dione] | 40% | 9800 nM | > 30 µM |  |
| O=C1CCC(N2Cc3cc(C4CCN(Cc5cnc6cnccn56)CC4)ccc3C2=O)C(=O)N1 (stereo not drawn) [Compound I-126] | 60% | 390 nM | > 30 µM |  |
| O=C1CCC(N2Cc3cc(C4CCN(Cc5cccc6ncnn56)CC4)ccc3C2=O)C(=O)N1 (stereo not drawn) [Compound I-127, 3-(5-(1-([1,2,4]triazolo[1,5-a]pyridin-5-ylmethyl)piperidin-4-yl)-1-oxoisoindolin-2-yl)piperidine-2,6-dione] | 45% | 190 nM | > 30 µM |  |
| Cc1cn(C)c(CN2CCC(c3ccc4c(c3)CN(C3CCC(=O)NC3=O)C4=O)CC2)n1 (stereo not drawn) [Compound I-129, 3-(5-(1-((1,4-dimethyl-1H-imidazol-2-yl)methyl)piperidin-4-yl)-1-oxoisoindolin-2-yl)piperidine-2,6-dione] | 40% | 190 nM | > 30 µM |  |
| O=C1CCC(N2Cc3cc(C4CCN(Cc5cnc6ncccn56)CC4)ccc3C2=O)C(=O)N1 (stereo not drawn) [Compound I-132, 3-(5-(1-(imidazo[1,2-a]pyrimidin-3-ylmethyl)piperidin-4-yl)-1-oxoisoindolin-2-yl)piperidine-2,6-dione] | 60% | 1080 nM | > 30 µM |  |
| O=C1CCC(N2Cc3cc(C4CCN(Cc5ccc6cc[nH]c6n5)CC4)ccc3C2=O)C(=O)N1 (stereo not drawn) [Compound I-140, 3-(5-(1-((1H-pyrrolo[2,3-b]pyridin-6-yl)methyl)piperidin-4-yl)-1-oxoisoindolin-2-yl)piperidine-2,6-dione] | 80% | 19 nM | > 30 µM |  |
| O=C1CCC(N2Cc3cc(C4CCN(Cc5ccc6c(c5)NCCS6)CC4)ccc3C2=O)C(=O)N1 (stereo not drawn) [Compound I-141, 3-(5-(1-((3,4-dihydro-2H-benzo[b][1,4]thiazin-6-yl)methyl)piperidin-4-yl)-1-oxoisoindolin-2-yl)piperidine-2,6-dione] | 80% | 9 nM | > 30 µM |  |
| O=C1CCC(N2Cc3cc(C4CCN(Cc5cc(C6CC6)[nH]n5)CC4)ccc3C2=O)C(=O)N1 (stereo not drawn) [Compound I-146, 3-(5-(1-((5-cyclopropyl-1H-pyrazol-3-yl)methyl)piperidin-4-yl)-1-oxoisoindolin-2-yl)piperidine-2,6-dione] | 60% | 170 nM | > 30 µM |  |
| O=C1CCC(N2Cc3cc(C4CCN(Cc5c[nH]nc5-c5ccccc5)CC4)ccc3C2=O)C(=O)N1 (stereo not drawn) [Compound I-148, 3-(1-oxo-5-(1-((3-phenyl-1H-pyrazol-4-yl)methyl)piperidin-4-yl)isoindolin-2-yl)piperidine-2,6-dione] | 70% | 39 nM | > 30 µM |  |
| O=C1CCC(N2Cc3cc(C4CCN(Cc5c[nH]nc5-c5cccnc5)CC4)ccc3C2=O)C(=O)N1 (stereo not drawn) [Compound I-151, 3-(1-oxo-5-(1-((3-(pyridin-3-yl)-1H-pyrazol-4-yl)methyl)piperidin-4-yl)isoindolin-2-yl)piperidine-2,6-dione] | 60% | 95 nM | > 30 µM |  |
| O=C1CCC(N2Cc3cc(C4=CCN(Cc5ccccc5)CC4)ccc3C2=O)C(=O)N1 (stereo not drawn) [Compound I-172, 3-(5-(1-benzyl-1,2,3,6-tetrahydropyridin-4-yl)-1-oxoisoindolin-2-yl)piperidine-2,6-dione] |  | 103 nM | 0.25 µM | 60% |
| Cc1cccc(CN2CCC(c3ccc4c(c3)CN(C3CCC(=O)NC3=O)C4=O)CC2)c1 (stereo not drawn) [Compound I-173, 3-(5-(1-(3-methylbenzyl)piperidin-4-yl)-1-oxoisoindolin-2-yl)piperidine-2,6-dione] |  | 74 nM | > 30 µM | 65% |
| O=C1CCC(N2Cc3cc(C4CCN(Cc5ccc6c(c5)CCCC6)CC4)ccc3C2=O)C(=O)N1 (stereo not drawn) [Compound I-175, 3-(1-oxo-5-(1-((5,6,7,8-tetrahydronaphthalen-2-yl)methyl)piperidin-4-yl)isoindolin-2-yl)piperidine-2,6-dione] | 50% | 5 nM | > 50 µM |  |
| O=C1CCC(N2Cc3cc(C4CCN(CCC(F)(F)F)CC4)ccc3C2=O)C(=O)N1 (stereo not drawn) [Compound I-179, 3-(1-oxo-5-(1-(3,3,3-trifluoropropyl)piperidin-4-yl)isoindolin-2-yl)piperidine-2,6-dione] | 40% | 67 nM | > 30 µM |  |
| CC1(C)CN(Cc2ccccc2)CCC1c1ccc2c(c1)CN(C1CCC(=O)NC1=O)C2=O (stereo not drawn) [Compound I-185, 3-(5-(1-benzyl-3,3-dimethylpiperidin-4-yl)-1-oxoisoindolin-2-yl)piperidine-2,6-dione] | 20% | > 30000 nM | > 30 µM |  |
| CC1CN(Cc2ccccc2)CCC1c1ccc2c(c1)CN(C1CCC(=O)NC1=O)C2=O (stereo not drawn) [Compound I-187, 3-(5-(1-benzyl-3-methylpiperidin-4-yl)-1-oxoisoindolin-2-yl)piperidine-2,6-dione] | 50% | 67 nM | > 30 µM |  |
| O=C1CCC(N2Cc3cc(C4=CCN(Cc5ccccc5)C4)ccc3C2=O)C(=O)N1 (stereo not drawn) [Compound I-191, 3-(5-(1-benzyl-2,5-dihydro-1H-pyrrol-3-yl)-1-oxoisoindolin-2-yl)piperidine-2,6-dione] | 10% | 4200 nM | > 30 µM |  |
| O=C1CCC(N2Cc3cc(C4CCN(Cc5nc6ccccc6s5)CC4)ccc3C2=O)C(=O)N1 (stereo not drawn) [Compound I-200, 3-(5-(1-(benzo[d]thiazol-2-ylmethyl)piperidin-4-yl)-1-oxoisoindolin-2-yl)piperidine-2,6-dione] | 35% | 67 nM | > 30 µM |  |
| O=C1CCC(N2Cc3cc(C4CCN(Cc5cc(-c6ccccn6)n[nH]5)CC4)ccc3C2=O)C(=O)N1 (stereo not drawn) [Compound I-201, 3-(1-oxo-5-(1-((3-(pyridin-2-yl)-1H-pyrazol-5-yl)methyl)piperidin-4-yl)isoindolin-2-yl)piperidine-2,6-dione] | 75% | 33 nM | > 30 µM |  |
| O=C1CCC(N2Cc3cc(C4CCN(Cc5ncon5)CC4)ccc3C2=O)C(=O)N1 (stereo not drawn) [Compound I-204, 3-(5-(1-((1,2,4-oxadiazol-3-yl)methyl)piperidin-4-yl)-1-oxoisoindolin-2-yl)piperidine-2,6-dione] | 0% | > 50000 nM | > 50 µM |  |
| Cc1cc2nc(CN3CCC(c4ccc5c(c4)CN(C4CCC(=O)NC4=O)C5=O)CC3)cc(O)n2n1 (stereo not drawn) [Compound I-208, 3-(5-(1-((7-hydroxy-2-methylpyrazolo[1,5-a]pyrimidin-5-yl)methyl)piperidin-4-yl)-1-oxoisoindolin-2-yl)piperidine-2,6-dione] | 60% | 1500 nM | > 30 µM |  |
